# Patent US20100152274A1, “CRYSTALLINE FORMS OF ATORVASTATIN 4-(NITROOXY) BUTYL ESTER” (Nicox S.A., priority 2007, published 2010)
# “Also recorded” adds a separate entry of the source.
# Experiments:
# Assay type in all cases: physicochemical
# [1] = Stability at 40° C. and 75% of relative humidity, open vials, monitored by Raman spectroscopy and PXRD; settings: for Stability in the reported conditions (heat and humidity): 40° C. and 75% r.h., summary statement; for Change of solid form by PXRD and Raman: open vials, 40° C., 75% relative humidity, after one and four weeks; for RESULTING FORM: Storage at 40° C. and 75% r.h., 28 d.
# Experimental: Stability at 40° C. and 75% of relative humidity of atorvastatin 4-(nitrooxy)butyl ester A and form B in comparison with the amorphous form was assessed. Atorvastatin 4-(nitrooxy)butyl ester form A, form B and amorphous were stored in open vials for one month at 40° C. and in presence of 75% of relative humidity, and the samples were monitored by Raman spectroscopy and by PXRD after one and four weeks.
# [2] = Stability of amorphous form in aqueous suspension at room temperature, monitored by Raman spectroscopy and PXRD; settings: for RESULTING FORM: Suspension in H2O, rt
# Experimental: Stability of amorphous atorvastatin 4-(nitrooxy)butyl ester in aqueous suspension was assessed. Amorphous atorvastatin 4-(nitrooxy)butyl ester was suspended in water at room temperature while stirring and monitored by Raman spectroscopy after one, seven and twenty-eight days.
# [3] = General stability statements (humidity, water, organic solvents, heat); settings: no test details
smiles,measurement,setting,value
"CC(C)c1c(C(=O)Nc2ccccc2)c(-c2ccccc2)c(-c2ccc(F)cc2)n1CC[C@@H](O)C[C@@H](O)CC(=O)OCCCCO[N+](=O)[O-] [Amorphous, atorvastatin 4-(nitrooxy)butyl ester]",Stability in the reported conditions (heat and humidity),[1]; listed as Amorphous form,"not stable, showing rapid conversion to form B"
same,Change of solid form by PXRD and Raman,[1]; listed as amorphous atorvastatin 4-(nitrooxy)butyl ester,converts to form B
same,RESULTING FORM,[2]; 1 d.,Amorphous
same,RESULTING FORM,"[2]; 1 d., listed as Amorphous atorvastatin 4-(nitrooxy)butyl ester",pure amorphous
same,RESULTING FORM,[2]; 7 d.,Amorphous (+B)
same,RESULTING FORM,"[2]; 7 d., listed as Amorphous atorvastatin 4-(nitrooxy)butyl ester",detectable amount of form B was observed; also recorded: start of crystallization of form B
same,RESULTING FORM,[2]; 28 d.,Amorphous + B
same,RESULTING FORM,"[2]; 28 d., listed as Amorphous atorvastatin 4-(nitrooxy)butyl ester",mixture of amorphous form and form B
same,Stability in aqueous suspension,"[2]; room temperature, summary statement",not stable in aqueous suspension at room temperature
same,Stability (general statement),[3]; listed as amorphous form of Atorvastatin 4-(nitrooxy)butyl ester,"unstable at humidity conditions, in organic solvents and in stressed thermal conditions"
"CC(C)c1c(C(=O)Nc2ccccc2)c(-c2ccccc2)c(-c2ccc(F)cc2)n1CC[C@@H](O)C[C@@H](O)CC(=O)OCCCCO[N+](=O)[O-] [Form A, (βR,δR)-2(4-fluorophenyl)-β,δ-dihydroxy-5-(1-methylethyl)-3-phenyl-4-[(phenylamino)carbon-yl]-1H-pyrrole-1-heptanoic acid 4-(nitrooxy)butyl ester]",Stability in the reported conditions (heat and humidity),[1],stable in the reported conditions for at least four weeks
same,RESULTING FORM,[1],Form A
same,Change of solid form by PXRD and Raman,[1],no differences in the solid form
same,Stability (general statement),[3],"good stability in water, in organic solvents, and when exposed to heat and humidity"
"CC(C)c1c(C(=O)Nc2ccccc2)c(-c2ccccc2)c(-c2ccc(F)cc2)n1CC[C@@H](O)C[C@@H](O)CC(=O)OCCCCO[N+](=O)[O-] [Form B, (βR,δR)-2(4-fluorophenyl)-β,δ-dihydroxy-5-(1-methylethyl)-3-phenyl-4-[(phenylamino)carbon-yl]-1H-pyrrole-1-heptanoic acid 4-(nitrooxy)butyl ester]",Stability in the reported conditions (heat and humidity),[1],stable in the reported conditions for at least four weeks
same,RESULTING FORM,[1],Form B
same,Change of solid form by PXRD and Raman,[1],no differences in the solid form
same,Stability (general statement),[3],"good stability in water, in organic solvents, and when exposed to heat and humidity"
